Laboratory results: PMC7329366 (Molecular nutrition & food research, 2020)
Read-outs that look alike come from different tables or passages of the source.

Key:
[1] = Plasma pharmacokinetics after a single oral RK dose, normal-weight; assay type: in vivo, C57BL/6J mice; details: for AUC(0-t): AUC (0–12 h); for half-life: T1/2 (elimination half-life)
[2] = assay type: in vivo, C57BL/6J mice; details: single oral RK 200 mg kg^−1; for half-life: T1/2 (elimination half-life)
[3] = assay type: in vivo, C57BL/6J mice; details: for Cmax: mean±SEM; for presence in the brain: brain of either sexes after oral RK
[4] = Plasma pharmacokinetics after a single oral RK dose, male vs female mice; assay type: in vivo, C57BL/6J mice
[5] = Distribution in white adipose tissue; assay type: in vivo, C57BL/6J mice; details: epididymal WAT; for time within which considerable accumulation in WAT was observed: male mice, oral RK 200 mg kg^−1; for increase in WAT level in obese animals compared with normal-weight: between 15 and 30 min
[6] = assay type: in vivo; details: in 24 h, normal-weight male mice, preliminary dosing tests
[7] = male, C57BL/6J, mouse, plasma, po, 200 mg/kg, Pl-N: plasma, normal-weight male mice, single oral RK 200 mg kg^−1
[8] = male, C57BL/6J, mouse, plasma, po, 200 mg/kg, Pl-O: plasma, obese male mice, single oral RK 200 mg kg^−1
[9] = male, C57BL/6J, mouse, plasma, po, 200 mg/kg, Tmax, Pl-N: plasma, normal-weight male mice, single oral RK 200 mg kg^−1
[10] = Br-N: brain, normal-weight male mice
[11] = male, C57BL/6J, mouse, brain, po, 200 mg/kg, Br-N: brain, normal-weight male mice
[12] = male, C57BL/6J, mouse, brain, po, 200 mg/kg, Tmax, Br-N: brain, normal-weight male mice
[13] = Br-F: brain, female LFD mice, single oral RK 200 mg kg^−1
[14] = Br-M: brain, male LFD mice, single oral RK 200 mg kg^−1
[15] = female, C57BL/6J, mouse, brain, po, 200 mg/kg
[16] = male, C57BL/6J, mouse, brain, po, 200 mg/kg
[17] = female, C57BL/6J, mouse, plasma, po, 200 mg/kg
[18] = male, C57BL/6J, mouse, plasma, po, 200 mg/kg
[19] = male, C57BL/6J, mouse, brain, po, 200 mg/kg, Br-O: brain, obese male mice
[20] = Pl-N: plasma, normal-weight male mice, single oral RK 200 mg kg^−1
[21] = Pl-O: plasma, obese male mice, single oral RK 200 mg kg^−1
[22] = Pl-F: plasma, female LFD mice, single oral RK 200 mg kg^−1
[23] = Pl-M: plasma, male LFD mice, single oral RK 200 mg kg^−1

AUC(0-t) [1, 7]	half-life [1, 7]	half-life [1, 8]	Tmax [1, 9]	Cmax [2, 10]	Cmax ([2]; Br-O: brain, obese male mice)	half-life [2, 11]	Tmax [2, 12]	Cmax [3, 13]	Cmax [3, 14]	Tmax [3, 15]	half-life [3, 15]	Tmax [3, 16]	half-life [3, 16]	Cmax [4, 17]	Tmax [4, 17]	AUC(0-t) [4, 18]	Tmax [4, 18]	half-life [4, 18]	time within which considerable accumulation in WAT was observed [5]	Compound	other results
0.08 ± 0.006 µM·h	48.9 ± 6.9 min	51.7 ± 4.36 min	20 min	0.031 ± 0.003 nmol/g	0.025 ± 0.002 nmol/g	35.5 ± 3.94 min	20 min	0.020 ± 0.006 nmol/g	0.021 ± 0.003 nmol/g	15 min	20.3 ± 1.41 min	15 min	21 ± 0.16 min	0.024 ± 0.002 µM	15 min	0.057 ± 0.006 µM·h	20 min	41.8 ± 1.25 min		OCCc1ccc(O)c(O)c1 [3,4-DHPE, 2-(3,4-dihydroxyphenyl)ethanol]	half-life [4, 17]: 63.6 ± 6.84 min
																				O=C(O)CCc1cccc(O)c1 [3-(3-hydroxyphenyl)propionic acid]	presence in the brain [3]: not found
20.7 ± 2.92 µM·h	73 ± 4.7 min	56.3 ± 8.8 min	20 min	6.14 ± 0.49 nmol/g	7.92 ± 1.60 nmol/g	31.5 ± 4.38 min	25 min	1.28 ± 0.08 nmol/g	1.03 ± 0.14 nmol/g	20 min		15 min	64.7 ± 7.78 min	43.6 ± 2.9 µM	40 min	108 ± 10.9 µM·h	50 min	104 ± 2.1 min	≤ 15 min	OCCc1ccc(O)cc1 [4-HPE, 2-(4-hydroxyphenyl)ethanol]	AUC(0-t) [1, 8]: 28.7 ± 3.65 µM·h; half-life [2, 19]: 38.8 ± 2.56 min; AUC(0-t) [4, 17]: 98.7 ± 7.38 µM·h
1.04 ± 0.16 µM·h	41.6 ± 3 min	48 ± 2.1 min	30 min	0.23 ± 0.012 nmol/g		36.2 ± 1.6 min	30 min	0.112 ± 0.042 nmol/g	0.067 ± 0.011 nmol/g	25 min	35.8 ± 2.29 min	20 min	33.4 ± 0.73 min		15 min	0.465 ± 0.046 µM·h	40 min	41.4 ± 2.91 min	≤ 15 min	CC(=O)C=Cc1ccc(O)c(O)c1 [DHPhLiAce, 3,4-dihydroxybenzylideneacetone]	AUC(0-t) [1, 8]: 1.38 ± 0.04 µM·h; half-life [2, 19]: 37.2 ± 0.22 min; half-life [4, 17]: 30 ± 4.24 min
387 ± 25.6 µM·h	73.3 ± 1.2 min	94.7 ± 7.8 min	15 min	32.7 ± 4.34 nmol/g	46.7 ± 6.2 nmol/g	39.5 ± 1.9 min	20 min	37.4 ± 8.73 nmol/g	28.9 ± 2.42 nmol/g	15 min	28.3 ± 1.65 min	15 min	25.7 ± 2 min	281 ± 17.1 µM	15 min	358 ± 34 µM·h	15 min	78.4 ± 3.55 min	≤ 15 min	CC(=O)CCc1ccc(O)cc1 [RK, 4-(4-hydroxyphenyl)-2-butanone]	clearance from the bloodstream [6]: > 99%; maximal circulating concentration ([1]; plasma, normal-weight mice): 236 nM; maximal circulating concentration ([1]; plasma, obese mice): 318 nM; twelve-hour plasma accumulation in obese animals as % of normal-weight ones ([1]; plasma, obese vs normal-weight): 152.2–197.6%; half-life [2, 19]: 41.5 ± 4 min; Tmax ([4]; both, C57BL/6J, mouse, plasma, po, 200 mg/kg): ~15 min; AUC(0-t) [4, 17]: 299 ± 20.2 µM·h; time of absorption and tissue accumulation ([4]; oral RK 200 mg kg^−1, this study): < 30 min; increase in WAT level in obese animals compared with normal-weight [5]: 30–90%; higher residual content in WAT of obese mice ([5]; between 30 min and 2 h, obese vs normal-weight): > 100%
0.039 ± 0.008 µM·h	31 ± 5.6 min	41.7 ± 1.2 min	20 min											0.086 ± 0.022 µM	25 min	0.05 ± 0.005 µM·h	20 min	26.7 ± 2.81 min	≤ 15 min	COc1ccc(CCC(C)=O)cc1 [RK-Me, 4-(4-methoxy-phenyl)-2-butanone]	AUC(0-t) [1, 8]: 0.047 ± 0.007 µM·h; presence in the brain [3]: not found; AUC(0-t) [4, 17]: 0.069 ± 0.01 µM·h; half-life [4, 17]: 31.4 ± 1.84 min
				55.1 ± 8.12 nmol/g	60.3 ± 6.6 nmol/g			21.6 ± 4.72 nmol/g	21.0 ± 2.68 nmol/g										≤ 15 min	CC(O)CCc1ccc(O)cc1 (stereo not drawn) [ROH, raspberry alcohol]	AUC (0–12 h) [1, 20]: 208 ± 22.0 nmol/mL/min; T1/2 (elimination half-life) [1, 20]: 66.1 ± 1.7 min; Tmax [1, 20]: 25.0 ± 5.0 min; T1/2 (elimination half-life) [1, 21]: 70.0 ± 1.5 min; Tmax [1, 21]: 50.0 ± 10.0 min; T1/2 (elimination half-life) [2, 10]: 33.7 ± 2.2 min; Tmax [2, 10]: 20.0 ± 5.0 min; Tmax ([2]; Br-O: brain, obese male mice): 40.0 ± 10.0 min; T1/2 (elimination half-life) [3, 14]: 32.0 ± 0.77 min; Tmax [3, 14]: 20.0 ± 5.0 min; AUC (0–12 h) [4, 22]: 158 ± 17.1 nmol/mL/min; Tmax [4, 22]: 25.0 ± 4.99 min; Cmax ([4]; Pl-F: plasma, female LFD mice, single oral RK 200 mg kg^−1, mean±SEM): 130 ± 12.7 µM; AUC (0–12 h) [4, 23]: 177 ± 11.8 nmol/mL/min; T1/2 (elimination half-life) [4, 23]: 63.2 ± 2.61 min; Tmax [4, 23]: 25.0 ± 4.99 min; increase in WAT level in obese animals compared with normal-weight [5]: 30–90%
61.2 ± 4.7 µM·h	40.9 ± 4.8 min	68.8 ± 17.3 min	25 min	2.07 ± 0.24 nmol/g		44.4 ± 2.18 min	40 min	1.49 ± 0.30 nmol/g	1.51 ± 0.15 nmol/g		89.2 ± 10 min	15 min	84.1 ± 3.55 min	9.94 ± 2.4 µM	15 min	31 ± 3.65 µM·h	25 min	46.4 ± 2.1 min	≤ 15 min	COc1cc(CCC(C)=O)ccc1O [VLAce, vanillylacetone]	
																				CC(=O)C=Cc1ccccc1 [benzylideneacetone]	presence in the brain [3]: not found
																				COc1cc(/C=C/C(=O)O)ccc1O [ferulic acid]	presence in the brain [3]: not found
